Measured values from patent publication US7872014B2, “Anaplastic lymphoma kinase modulators and methods of use” (Exelixis, Inc., priority 2003, dated 2011).
pIC50: −log10 of the molar value.

target: T1, ALK (baculovirus expressed human ALK kinase domain F1098-K1410) (Homo sapiens, UniProt Q9UM73); test: Luciferase-Coupled Chemiluminescent Kinase assay (LCCA), ALK biochemical activity; settings: inhibition of ALK; mean values; 1 μM ATP, 4 μM poly-AEKY, 12 nM ALK, 2 hours ambient temperature
T1 construct: baculovirus expressed human ALK kinase domain F1098-K1410; made in house
Method in brief: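 Luciferase-coupled readout of ATP remaining after reaction of 12 nM ALK kinase domain with 1 μM ATP and 4 μM poly-AEKY, Tris-HCl pH 7.5 buffer with MgCl2 and MnCl2. Incubated 2 h at ambient temperature; inhibition derived from ATP consumption across serial compound dilutions.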

T1 sequence (Q9UM73 1098-1410): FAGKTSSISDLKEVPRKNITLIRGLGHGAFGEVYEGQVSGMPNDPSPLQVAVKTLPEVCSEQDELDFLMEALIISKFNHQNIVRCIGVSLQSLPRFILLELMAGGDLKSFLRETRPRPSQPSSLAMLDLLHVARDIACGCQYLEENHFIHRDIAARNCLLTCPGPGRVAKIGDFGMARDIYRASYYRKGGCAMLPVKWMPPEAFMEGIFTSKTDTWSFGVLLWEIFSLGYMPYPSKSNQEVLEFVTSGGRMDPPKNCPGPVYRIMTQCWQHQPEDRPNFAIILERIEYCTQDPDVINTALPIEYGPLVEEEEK

Row | Compound | pIC50
1 | Cc1n[nH]c2nc(-c3cn(C)c(=N)s3)c3c(F)cc(O)c(F)c3c12 [Example 221, 6,9-difluoro-5-(2-imino-3-methyl-2,3-dihydro-1,3-thiazol-5-yl)-1-methyl-3H-pyrazolo[3,4-c]isoquinolin-8-ol] | 5.70 to 6.00
2 | COc1c(OC2CC3CCC(C2)N3C)cc(F)c2c(-c3ccc(O)c(Cl)c3)nc3[nH]nc(C)c3c12 (stereo not drawn) [Example 223, 2-chloro-4-[6-fluoro-1-methyl-8-[(8-methyl-8-azabicyclo[3.2.1]oct-3-yl)oxy]-9-(methyloxy)-3H-pyrazolo[3,4-c]isoquinolin-5-yl]phenol] | ≥ 7.00
3 | COc1c(OCCCN2CCCC2)cc(F)c2c(-c3ccc(O)c(Cl)c3)nc3[nH]nc(C)c3c12 [Example 224, 2-chloro-4-{6-fluoro-1-methyl-9-(methyloxy)-8-[(3-pyrrolidin-1-ylpropyl)oxy]-3H-pyrazolo[3,4-c]isoquinolin-5-yl}phenol] | ≥ 7.00
4 | COc1c(OCCCN2CCCCC2)cc(F)c2c(-c3ccc(O)c(Cl)c3)nc3[nH]nc(C)c3c12 [Example 225, 2-chloro-4-{6-fluoro-1-methyl-9-(methyloxy)-8-[(3-piperidin-1-ylpropyl)oxy]-3H-pyrazolo[3,4-c]isoquinolin-5-yl}phenol] | ≥ 7.00
5 | COc1c(OCCCN2CCOCC2)cc(F)c2c(-c3ccc(O)c(Cl)c3)nc3[nH]nc(C)c3c12 [Example 226, 2-chloro-4-{6-fluoro-1-methyl-9-(methyloxy)-8-[(3-morpholin-4-ylpropyl)oxy]-3H-pyrazolo[3,4-c]isoquinolin-5-yl}phenol] | ≥ 7.00
6 | COc1c(OCCN(C)CCN(C)C)cc(F)c2c(-c3ccc(O)c(Cl)c3)nc3[nH]nc(C)c3c12 [Example 227, 2-chloro-4-[8-({2-[[2-(dimethylamino)ethyl](methyl)amino]ethyl}oxy)-6-fluoro-1-methyl-9-(methyloxy)-3H-pyrazolo[3,4-c]isoquinolin-5-yl]phenol] | ≥ 7.00
7 | CCN(CC)CCN(C)CCOc1cc(F)c2c(-c3ccc(O)c(Cl)c3)nc3[nH]nc(C)c3c2c1OC [Example 228, 2-chloro-4-[8-({2-[[2-(diethylamino)ethyl](methyl)amino]ethyl}oxy)-6-fluoro-1-methyl-9-(methyloxy)-3H-pyrazolo[3,4-c]isoquinolin-5-yl]phenol] | ≥ 7.00
8 | CCN(CCOc1cc(F)c2c(-c3ccc(O)c(Cl)c3)nc3[nH]nc(C)c3c2c1OC)CCN(C)C [Example 229, 2-chloro-4-[8-({2-[[2-(dimethylamino)ethyl](ethyl)amino]ethyl}oxy)-6-fluoro-1-methyl-9-(methyloxy)-3H-pyrazolo[3,4-c]isoquinolin-5-yl]phenol] | ≥ 7.00
9 | COc1c(OCCN(CCCN(C)C)CCCN(C)C)cc(F)c2c(-c3ccc(O)c(Cl)c3)nc3[nH]nc(C)c3c12 [Example 230, 4-[8-[(2-{bis[3-(dimethylamino)propyl]amino}ethyl)oxy]-6-fluoro-1-methyl-9-(methyloxy)-3H-pyrazolo[3,4-c]isoquinolin-5-yl]-2-chlorophenol] | ≥ 7.00
10 | COc1c(OCCN(C)C2CCN(C)C2)cc(F)c2c(-c3ccc(O)c(Cl)c3)nc3[nH]nc(C)c3c12 (stereo not drawn) [Example 231, 2-chloro-4-[6-fluoro-1-methyl-8-({2-[methyl(1-methylpyrrolidin-3-yl)amino]ethyl}oxy)-9-(methyloxy)-3H-pyrazolo[3,4-c]isoquinolin-5-yl]phenol] | ≥ 7.00
11 | COC[C@@H]1CCCN1CCOc1cc(F)c2c(-c3ccc(O)c(Cl)c3)nc3[nH]nc(C)c3c2c1OC [Example 232, 2-chloro-4-{6-fluoro-1-methyl-9-(methyloxy)-8-[(2-{(2S)-2-[(methyloxy)methyl]pyrrolidin-1-yl}ethyl)oxy]-3H-pyrazolo[3,4-c]isoquinolin-5-yl}phenol] | ≥ 7.00
12 | COc1c(OCCN2CCC(N3CCCC3)CC2)cc(F)c2c(-c3ccc(O)c(Cl)c3)nc3[nH]nc(C)c3c12 [Example 233, 2-chloro-4-(6-fluoro-1-methyl-9-(methyloxy)-8-{[2-(4-pyrrolidin-1-ylpiperidin-1-yl)ethyl]oxy}-3H-pyrazolo[3,4-c]isoquinolin-5-yl)phenol] | ≥ 7.00
13 | COc1c(OCCN2CCN(C3CCCCC3)CC2)cc(F)c2c(-c3ccc(O)c(Cl)c3)nc3[nH]nc(C)c3c12 [Example 234, 2-chloro-4-[8-{[2-(4-cyclohexylpiperazin-1-yl)ethyl]oxy}-6-fluoro-1-methyl-9-(methyloxy)-3H-pyrazolo[3,4-c]isoquinolin-5-yl]phenol] | ≥ 7.00
14 | COc1c(OCCN2CCN(CC(=O)NC(C)C)CC2)cc(F)c2c(-c3ccc(O)c(Cl)c3)nc3[nH]nc(C)c3c12 [Example 235, 2-[4-(2-{[5-(3-chloro-4-hydroxyphenyl)-6-fluoro-1-methyl-9-(methyloxy)-3H-pyrazolo[3,4-c]isoquinolin-8-yl]oxy}ethyl)piperazin-1-yl]-N-(1-methylethyl)acetamide] | ≥ 7.00
15 | COc1c(OCCN2CCC(N3CCCCC3)CC2)cc(F)c2c(-c3ccc(O)c(Cl)c3)nc3[nH]nc(C)c3c12 [Example 236, 4-[8-{[2-(1,4′-bipiperidin-1′-yl)ethyl]oxy}-6-fluoro-1-methyl-9-(methyloxy)-3H-pyrazolo[3,4-c]isoquinolin-5-yl]-2-chlorophenol] | ≥ 7.00
16 | COc1c(OCCN2CCCN(C)CC2)cc(F)c2c(-c3ccc(O)c(Cl)c3)nc3[nH]nc(C)c3c12 [Example 237, 2-chloro-4-[6-fluoro-1-methyl-8-{[2-(4-methyl-1,4-diazepan-1-yl)ethyl]oxy}-9-(methyloxy)-3H-pyrazolo[3,4-c]isoquinolin-5-yl]phenol] | ≥ 7.00
17 | COc1c(OCCN2CCN(c3ccccn3)CC2)cc(F)c2c(-c3ccc(O)c(Cl)c3)nc3[nH]nc(C)c3c12 [Example 238, 2-chloro-4-(6-fluoro-1-methyl-9-(methyloxy)-8-{[2-(4-pyridin-2-ylpiperazin-1-yl)ethyl]oxy}-3H-pyrazolo[3,4-c]isoquinolin-5-yl)phenol] | ≥ 7.00
18 | COc1c(OCCN2CC(C)OC(C)C2)cc(F)c2c(-c3ccc(O)c(Cl)c3)nc3[nH]nc(C)c3c12 (stereo not drawn) [Example 239, 2-chloro-4-[8-{[2-(2,6-dimethylmorpholin-4-yl)ethyl]oxy}-6-fluoro-1-methyl-9-(methyloxy)-3H-pyrazolo[3,4-c]isoquinolin-5-yl]phenol] | ≥ 7.00
19 | COc1c(OCCN2CCSCC2)cc(F)c2c(-c3ccc(O)c(Cl)c3)nc3[nH]nc(C)c3c12 [Example 240, 2-chloro-4-{6-fluoro-1-methyl-9-(methyloxy)-8-[(2-thiomorpholin-4-ylethyl)oxy]-3H-pyrazolo[3,4-c]isoquinolin-5-yl}phenol] | ≥ 7.00
20 | COc1c(OCCN2C(C)CCCC2C)cc(F)c2c(-c3ccc(O)c(Cl)c3)nc3[nH]nc(C)c3c12 (stereo not drawn) [Example 241, 2-chloro-4-[8-{[2-(2,6-dimethylpiperidin-1-yl)ethyl]oxy}-6-fluoro-1-methyl-9-(methyloxy)-3H-pyrazolo[3,4-c]isoquinolin-5-yl]phenol] | ≥ 7.00
21 | COc1c(OCCN2CCCC3CCCCC32)cc(F)c2c(-c3ccc(O)c(Cl)c3)nc3[nH]nc(C)c3c12 (stereo not drawn) [Example 242, 2-chloro-4-(6-fluoro-1-methyl-9-(methyloxy)-8-{[2-(octahydroquinolin-1(2H)-yl)ethyl]oxy}-3H-pyrazolo[3,4-c]isoquinolin-5-yl)phenol] | ≥ 7.00
22 | COc1c(OCCN(C(C)C)C(C)C)cc(F)c2c(-c3ccc(O)c(Cl)c3)nc3[nH]nc(C)c3c12 [Example 243, 4-[8-({2-[bis(1-methylethyl)amino]ethyl}oxy)-6-fluoro-1-methyl-9-(methyloxy)-3H-pyrazolo[3,4-c]isoquinolin-5-yl]-2-chlorophenol] | ≥ 7.00
23 | COCCN(CCOC)CCOc1cc(F)c2c(-c3ccc(O)c(Cl)c3)nc3[nH]nc(C)c3c2c1OC [Example 244, 4-[8-[(2-{bis[2-(methyloxy)ethyl]amino}ethyl)oxy]-6-fluoro-1-methyl-9-(methyloxy)-3H-pyrazolo[3,4-c]isoquinolin-5-yl]-2-chlorophenol] | ≥ 7.00
24 | COc1c(OCCN2CCCCC2)cc(F)c2c(-c3ccc(O)c(Cl)c3)nc3[nH]nc(C)c3c12 [Example 245, 2-chloro-4-{6-fluoro-1-methyl-9-(methyloxy)-8-[(2-piperidin-1-ylethyl)oxy]-3H-pyrazolo[3,4-c]isoquinolin-5-yl}phenol] | ≥ 7.00
